In patent US4259235A, “Tricyclic nitrogenous compounds having string plant growth regulating properties” (BASF Aktiengesellschaft, priority 1977, dated 1981):
Read-outs that look alike come from different tables or passages of the source.

Columns and labels:
Poa pratensis [1] = assay: Shoot growth, postemergence treatment in the greenhouse (table 26); format: in vivo
Procedure: (§1) Plastic flowerpots having a volume of 300 cm^3 were filled with a sandy loam and the test plants placed therein (either as seed, as vegetatively reproduced species, or as potted plants, e.g., vines). For preemergence treatment, the active ingredients were suspended or emulsified in water as vehicle and sprayed onto the surface of the soil immediately after sowing by means of finely distributing nozzles. The potted vines were treated by spraying them with the correspondingly diluted liquor. For postemergence treatment, the agents were, as stated above, sprayed in water onto the leaves of the test plants, some liquor also falling onto the soil. In some special cases, solid active ingredients were first dissolved in dimethylformamide and then applied in a total liquor amount of 400 liters of water per hectare. For the postemergence treatment, the plants were first grown to a height of from 3 to 10 cm before being treated. With grasses, the first growth was cut, and the new growth treated 2 to 3 days after cutting. The temperature requirements of the plants were taken into account by placing them in cooler or warmer sections of the greenhouse. The experiments were run for from 4 to 6 weeks, during which time the plants were tended and their reaction to the various treatments was assessed.
(§2) The application rates are given in kg/ha of active ingredient, regardless of the method of application and the amount of water used.
(§3) A 0 to 100 scale was used for the evaluation, 0 denoting normal emergence or no damage (or no inhibition), and 100 denoting non-emergence or complete destruction of the plants. A distinction should be made in the influence on growth between desired changes without any appreciable disadvantageous phytotoxic effects (e.g., purely growth-regulating effects) and those of a phytotoxic herbicical character.

Cynodon dactylon = assay: as above; format: in vivo; settings: from seed
Procedure: as §1, §2, §3

Hordeum vulgare = assay: as above; format: in vivo
Procedure: as §1, §2, §3

Ipom. spp. = assay: Herbicidal action, pre- and postemergence application in the greenhouse; format: in vivo, Ipomoea spp.; settings: Ipomoea, post-emergence; 3.0 kg/ha POST; read-out: % damage
Procedure: as §1, §2, §3

Sinapis alba = assay: as above; format: in vivo; settings: post-emergence, read-out: % damage
Procedure: as §1, §2, §3

Lolium mult. = assay: as above; format: in vivo; settings: for pest or weed control at 3000 g/ha: Lolium, post-emergence, read-out: % damage
Procedure: as §1, §2, §3

Viola tric. = assay: as above; format: in vivo; settings: 3.0 kg/ha POST
Procedure: as §1, §2, §3

Mentha piper. = assay: as above; format: in vivo; settings: post-emergence; 3.0 kg/ha POST; read-out: % damage
Procedure: as §1, §2, §3

Euph. gen. = assay: as above; format: in vivo, Euphorbia geniculata
Procedure: as §1, §2, §3

Cynodon dact. (seed) = assay: as above; format: in vivo, Cynodon dactylon
Procedure: as §1, §2, §3

Medicago sativa = assay: Inhibition of shoot growth by growth regulators, pre- and postemergence (table 27); format: in vivo; settings: post-emergence, read-out: shoot growth inhibition (%)
Procedure: as §1, §2, §3

Euphorbia geniculata [2] = assay: as above; format: in vivo; settings: Euphorbia heterophylla, post-emergence, read-out: shoot growth inhibition (%)
Procedure: as §1, §2, §3

Poa pratensis [3] = assay: Growth inhibition in lawns, preemergence treatment in the greenhouse; format: in vivo; settings: Poa pratensis, pre-emergence, read-out: % growth inhibition after emergence
Procedure: as §1, §2, §3

Euphorbia genic. = assay: Shoot inhibition, pre- and postemergence treatment (table 28); format: in vivo, Euphorbia geniculata; settings: post-emergence, read-out: % shoot inhibition
Procedure: as §1, §2, §3

Hordeum vulg. = assay: as above; format: in vivo, Hordeum vulgare; settings: post-emergence
Procedure: as §1, §2, §3

Tritic. aestiv. = assay: as above; format: in vivo; settings: post-emergence
Procedure: as §1, §2, §3

Glycine max = assay: as above; format: in vivo; settings: post-emergence, read-out: % shoot inhibition
Procedure: as §1, §2, §3

Poa prat. = assay: as above; format: in vivo; settings: Poa pratensis, post-emergence, read-out: % shoot inhibition
Procedure: as §1, §2, §3

Arachys hypog. = assay: as above; format: in vivo, Arachys hypogaea; settings: post-emergence, read-out: % shoot inhibition
Procedure: as §1, §2, §3

Cynodon dactyl. = assay: as above; format: in vivo, Cynodon dactylon; settings: post-emergence, read-out: % shoot inhibition
Procedure: as §1, §2, §3

Euphorbia geniculata [4] = assay: Shoot growth, postemergence treatment in the greenhouse (table 26); format: in vivo
Procedure: as §1, §2, §3

Cyper. esc. = assay: Removal and inhibition of unwanted plants, preemergence, greenhouse; format: in vivo, Cyperus esculentus
Procedure: as §1, §2, §3

Solan. nig. = assay: as above; format: in vivo, Solanum nigrum
Procedure: as §1, §2, §3

Echin. c.g. = assay: as above; format: in vivo, Echinochloa crus galli
Procedure: as §1, §2, §3

Setar. spp. = assay: as above; format: in vivo
Procedure: as §1, §2, §3

Lam. spp. = assay: as above; format: in vivo
Procedure: as §1, §2, §3

Galium apar. = assay: Herbicidal action, pre- and postemergence application in the greenhouse; format: in vivo, Galium aparine; settings: post-emergence, 3.0 kg/ha POST, read-out: % damage
Procedure: as §1, §2, §3

[5] = read-out: % shoot inhibition, 1.0 kg/ha POST
[6] = read-out: % shoot inhibition, 1.0 kg/ha PRE
[7] = read-out: % shoot inhibition, 2.0 kg/ha POST
[8] = read-out: % shoot inhibition, 2.0 kg/ha PRE
[9] = 1.0 kg/ha POST, read-out: % shoot inhibition
[10] = 1.0 kg/ha PRE, read-out: % shoot inhibition
[11] = 2.0 kg/ha POST, read-out: % shoot inhibition
[12] = 2.0 kg/ha PRE, read-out: % shoot inhibition

## OC1C2CC(C3N=NC23)C1Nc1ccc(Cl)cc1 (stereo not shown)
Poa pratensis [1]; 1.0 kg/ha
  Shoot length: 13 cm
Poa pratensis [1]; 2.0 kg/ha
  Shoot length: 13 cm
Cynodon dactylon; 1.0 kg/ha
  Shoot length: 6 cm
Cynodon dactylon; 2.0 kg/ha
  Shoot length: 6 cm
Hordeum vulgare; 0.5 kg/ha
  Shoot length: 16 cm
Hordeum vulgare; 1.0 kg/ha
  Shoot length: 15 cm
Hordeum vulgare; 2.0 kg/ha
  Shoot length: 14 cm

## OC1C(O)C2CC1C1N=NC21 (stereo not shown)
Ipom. spp.
  pest or weed control at 3000 g/ha: 100%
Sinapis alba; 3.0 kg/ha PRE
  pest or weed control at 3000 g/ha: 80%
Lolium mult.; 3.0 kg/ha POST
  pest or weed control at 3000 g/ha: 95%
Lolium mult.; 3.0 kg/ha PRE
  pest or weed control at 3000 g/ha: 90%
Viola tric.
  % damage: 95%
Mentha piper.
  pest or weed control at 3000 g/ha: 100%

## ClC1C(Cl)C2CC1C1N=NC21 (stereo not shown)
Euph. gen.; 1.0 kg/ha PRE
  % damage: 70%
Euph. gen.; 2.0 kg/ha POST
  % damage: 95%
Cynodon dact. (seed); 1.0 kg/ha PRE
  % damage: 90%
Cynodon dact. (seed); 2.0 kg/ha POST
  % damage: 100%
Lolium mult.; 3.0 kg/ha POST
  % damage: 100%
Lolium mult.
  pest or weed control at 3000 g/ha: 100%

## C[N+](C)(C)CCCl [[ClCH2CH2N(C⊕H3)3]⊖ Cl, reference compound]
Medicago sativa
  inhibition at 500 g/ha: 0%
  inhibition at 1000 g/ha: 0%
  inhibition at 2000 g/ha: 0%
  inhibition at 4000 g/ha: 0%
Euphorbia geniculata [2]
  inhibition at 500 g/ha: 0%
  inhibition at 1000 g/ha: 0%
  inhibition at 2000 g/ha: 0%
  inhibition at 4000 g/ha: 10%
Poa pratensis [3]; 0.5 kg/ha
  inhibition at 500 g/ha: 0%
Poa pratensis [3]; 1.0 kg/ha
  inhibition at 1000 g/ha: 10%
Poa pratensis [3]; 2.0 kg/ha
  inhibition at 2000 g/ha: 10%
Poa pratensis [3]; 4.0 kg/ha
  inhibition at 4000 g/ha: 10%
Euphorbia genic.
  inhibition at 1000 g/ha: 0%
  inhibition at 2000 g/ha: 0%
Hordeum vulg.; [5]
  inhibition at 1000 g/ha: 10%
Hordeum vulg.; [6]
  inhibition at 1000 g/ha: 20%
Hordeum vulg.; [7]
  inhibition at 2000 g/ha: 10%
Hordeum vulg.; [8]
  inhibition at 2000 g/ha: 20%
Tritic. aestiv.; [5]
  inhibition at 1000 g/ha: 30%
Tritic. aestiv.; [6]
  inhibition at 1000 g/ha: 20%
Tritic. aestiv.; [7]
  inhibition at 2000 g/ha: 30%
Tritic. aestiv.; [8]
  inhibition at 2000 g/ha: 20%
Glycine max
  inhibition at 1000 g/ha: 0%
  inhibition at 2000 g/ha: 0%
Poa prat.
  inhibition at 1000 g/ha: 0%
  inhibition at 2000 g/ha: 0%
Arachys hypog.
  inhibition at 1000 g/ha: 0%
  inhibition at 2000 g/ha: 0%
Cynodon dactyl.
  inhibition at 1000 g/ha: 0%
  inhibition at 2000 g/ha: 0%
Poa pratensis [1]; 1.0 kg/ha
  Shoot length: 20 cm
Poa pratensis [1]; 2.0 kg/ha
  Shoot length: 19 cm
Cynodon dactylon; 1.0 kg/ha
  Shoot length: 7 cm
Cynodon dactylon; 2.0 kg/ha
  Shoot length: 7 cm
Hordeum vulgare; 0.5 kg/ha
  Shoot length: 14 cm
Hordeum vulgare; 1.0 kg/ha
  Shoot length: 14 cm
Hordeum vulgare; 2.0 kg/ha
  Shoot length: 14 cm
Euphorbia geniculata [4]; 0.5 kg/ha
  Shoot length: 12.5 cm
Euphorbia geniculata [4]; 1.0 kg/ha
  Shoot length: 13 cm
Euphorbia geniculata [4]; 2.0 kg/ha
  Shoot length: 13 cm

## BrC1C(Br)C2CC1C1N=NC21 (stereo not shown) [drawing 430]
Cyper. esc.; 2.0 kg/ha PRE
  % damage: 20%
Cyper. esc.; 4.0 kg/ha PRE
  % damage: 55%
Cyper. esc.; 8.0 kg/ha PRE
  % damage: 70%
Solan. nig.; 2.0 kg/ha PRE
  % damage: 95%
Solan. nig.; 4.0 kg/ha PRE
  % damage: 95%
Solan. nig.; 8.0 kg/ha PRE
  % damage: 95%
Echin. c.g.; 2.0 kg/ha PRE
  % damage: 50%
Echin. c.g.; 4.0 kg/ha PRE
  % damage: 80%
Echin. c.g.; 8.0 kg/ha PRE
  % damage: 90%
Setar. spp.; 2.0 kg/ha PRE
  % damage: 100%
Setar. spp.; 4.0 kg/ha PRE
  % damage: 100%
Setar. spp.; 8.0 kg/ha PRE
  % damage: 100%
Lam. spp.; 2.0 kg/ha PRE
  % damage: 95%
Lam. spp.; 4.0 kg/ha PRE
  % damage: 95%
Lam. spp.; 8.0 kg/ha PRE
  % damage: 95%

## c1ccc(C2=NNC3C4CC(C5N=NC45)C23)cc1 (stereo not shown) [drawing 438]
Euphorbia genic.; 1.0 kg/ha PRE
  inhibition at 1000 g/ha: 10%
Euphorbia genic.; 2.0 kg/ha PRE
  inhibition at 2000 g/ha: 30%
Hordeum vulg.; [9]
  inhibition at 1000 g/ha: 30%
Hordeum vulg.; [10]
  inhibition at 1000 g/ha: 25%
Hordeum vulg.; [11]
  inhibition at 2000 g/ha: 30%
Hordeum vulg.; [12]
  inhibition at 2000 g/ha: 25%
Tritic. aestiv.; [9]
  inhibition at 1000 g/ha: 10%
Tritic. aestiv.; [10]
  inhibition at 1000 g/ha: 30%
Tritic. aestiv.; [11]
  inhibition at 2000 g/ha: 20%
Tritic. aestiv.; [12]
  inhibition at 2000 g/ha: 30%
Glycine max; 1.0 kg/ha PRE
  inhibition at 1000 g/ha: 10%
Glycine max; 2.0 kg/ha PRE
  inhibition at 2000 g/ha: 25%
Poa prat.; 1.0 kg/ha PRE
  inhibition at 1000 g/ha: 60%
Poa prat.; 2.0 kg/ha PRE
  inhibition at 2000 g/ha: 60%
Arachys hypog.; 1.0 kg/ha POST
  inhibition at 1000 g/ha: 20%
Arachys hypog.; 1.0 kg/ha PRE
  inhibition at 1000 g/ha: 10%
Arachys hypog.; 2.0 kg/ha POST
  inhibition at 2000 g/ha: 30%
Arachys hypog.; 2.0 kg/ha PRE
  inhibition at 2000 g/ha: 10%
Cynodon dactyl.; from seed, 1.0 kg/ha POST
  inhibition at 1000 g/ha: 13%
Cynodon dactyl.; from seed, 1.0 kg/ha PRE
  inhibition at 1000 g/ha: 10%
Cynodon dactyl.; from seed, 2.0 kg/ha POST
  inhibition at 2000 g/ha: 25%
Cynodon dactyl.; from seed, 2.0 kg/ha PRE
  inhibition at 2000 g/ha: 10%

## BrC1C(Br)C2CC1C1N=NC21 (stereo not shown) [drawing 442]
Euph. gen.; 1.0 kg/ha PRE
  % damage: 90%
Cynodon dact. (seed); 1.0 kg/ha PRE
  % damage: 100%
Sinapis alba; 3.0 kg/ha POST
  pest or weed control at 3000 g/ha: 100%
Sinapis alba; 3.0 kg/ha PRE
  pest or weed control at 3000 g/ha: 70%
Lolium mult.; 3.0 kg/ha POST
  pest or weed control at 3000 g/ha: 100%
Lolium mult.; 3.0 kg/ha PRE
  pest or weed control at 3000 g/ha: 40%

## c1ccc(C2=NOC3C4CC(C5N=NC45)C23)cc1 (stereo not shown) [drawing 453]
Ipom. spp.
  pest or weed control at 3000 g/ha: 100%
Galium apar.
  pest or weed control at 3000 g/ha: 95%
Cynodon dact. (seed); appln. rate 2 kg/ha, POST line
  % damage: 100%
Sinapis alba; 3.0 kg/ha PRE
  pest or weed control at 3000 g/ha: 90%
Lolium mult.; 3.0 kg/ha POST
  pest or weed control at 3000 g/ha: 100%
Lolium mult.; 3.0 kg/ha PRE
  pest or weed control at 3000 g/ha: 100%
Mentha piper.
  pest or weed control at 3000 g/ha: 75%
